Experimental data published in paper PMC5594551, “Heterogeneous drug penetrance of veliparib and carboplatin measured in triple negative breast tumors” (Breast Cancer Research : BCR, 2017).
Where “and” joins values, the source holds several entries; their conditions need not be identical. Equal values may be shown once.

Columns and labels:
[1] = Carboplatin plasma PK in patients of phase 1 trial (three-compartment model); assay type: in vivo
Experimental: Carboplatin and platinum adducts were determined in a limited number of blood samples from a previously presented phase 1 clinical trial (NCT02358200). […] In the case of grade 3 or grade 4 toxicity, carboplatin and/or talazoparib doses were held until below grade 1 and resumed at a lower dose level. Blood samples were obtained from a limited number of patients during cycle 1 day 1 (prior to talazoparib dosing) and cycle 2 day 1 pre-dose and up to 24 h post dose, and PBMCs were derived at day 15 post dose, DNA was extracted as described in Additional file 1d and platinum adducts were quantified by ICP-MS (Additional file 1b).
A three-compartment model best described carboplatin in plasma and no variability between patients was observed (Additional file 1: Figure S12 and Table S2). In further analyses, we assumed that the carboplatin plasma PK profile in the other 16 patients was similar to that the first 3 patients: in these patients glomerular filtration rate (GFR) ranged from 60 to 151 mL/min and BSA values ranged from 1.58 to 2.0 m^2. […] [34].
Supplementary Table 2: PK patients estimates carboplatin and platinum adducts Structural model PK Estimat RS
Inter-individual variability on Platinum adduct formation (RPT) 317% proportional residual error plasma carboplatin 28% 26 […]
proportional residual error adduct formation 110% 6%
Platinum adduct formation:
CL=clearance, V=volume of distribution, KA= rate of absorption, RPT= ratio of carboplatin adduct formation, KPT= rate of carboplatin adduct formation, gBRCA = germline BRCA carrier […]
(also on this page, place not known: ( )adductsC−×× plasmaCRPT KPT=dt dCadducts)
(1 picture or pasted object on this page, not shown here)

[2] = Carboplatin quantified by LC-MS in mouse plasma and TNBC xenograft tissue; assay type: in vivo, beige SCID mice
Experimental: Forty-one beige DF mice with severe combined immunodeficiency (SCID) (Fox Chase, strain R035948:1) were implanted with 10^6 MDA-MB-231 (N = 10), HCC70 N = 21) or MDA-MB-436 (N = 10) TNBC cells obtained from the ATCC bilaterally in the mammary fat pads (Fig. 1). When the TNBC xenograft tissue size exceeded 200 mm^3, the mice were randomized across the treatment cohorts. Animals were randomized into veliparib low dose (20 mg/kg), veliparib high dose (60 mg/kg) or placebo + C, introduced via oral gavage three times daily for 3 days (all but the two DCE-MRI study mice). Carboplatin at 60 mg/kg was administered intravenously on day 1 and day 2. […]
Thirty-nine mice were euthanized approximately 3 h after the last dose of veliparib and 24 h after the last dose of carboplatin; two mice used in the DCE-MRI pilot were euthanized 1.5 h after single-dose administration of veliparib and carboplatin (Fig. 1). […] A separate fresh-frozen portion of each tissue per animal was ground for quantification of veliparib and carboplatin by LC-MS. […]
Plasma samples (50 μl ) were prepared using protein precipitation with acetonitrile. […] Volume and weight of the pulverized tumor was determined. […]
Veliparib/carboplatin quantification: […]
Concentration of veliparib in tissues were calculated in mg/g and transferred to mg/L by estimating the average density of the livers, muscles and tumors. […]

[3] = design: method as in PMID 19364967; conditions: ref [46]; cited from earlier work
[4] = system: PARP1; conditions: read-out: IC50 for PARP1 inhibition; ref [3], [31]; cited from earlier work

Row | SMILES | Half-life carboplatin in plasma [1] [h] | Q [1] [L/h] | Q2 [1] [L/h] | V1 [1] [L] | V2 [1] [L] | CLday15 ([1]; day 15) [L/h] | CLday1 ([1]; single agent day 1) [L/h] | Carboplatin in TNBC xenograft tissues ([2]; 24 h after administration, MALDI-MSI and LC-MS) | Median conc. (RSE %) ([2]; plasma, 0.6 h after carboplatin 60 mg/kg intravenously, LC-MS) | Renal clearance as share of elimination [3] [%] | IC50 [4] [nM]
1 | N.N.O=C([O-])C1(C(=O)[O-])CCC1.[Pt+2] [carboplatin] | 2.1 | 0.324 | 16.7 | 0.935 | 52.8 | 5.33 | 5.2 | undetectable | 24 mg/L and 24 (20) mg/L |  | 
2 | C[C@]1(c2nc3c(C(N)=O)cccc3[nH]2)CCCN1 [veliparib] |  |  |  |  |  |  |  |  |  | 70 | […]
